The results in this text go back to ChEMBL document CHEMBL1817645, “Synthesis and pharmacological evaluation of 1-alkyl-N-[2-ethyl-2-(4-fluorophenyl)butyl]piperidine-4-carboxamide derivatives as novel antihypertensive agents” (Bioorg Med Chem, 2011).

The source made the active and inactive calls. No cut-off for these calls is given here.

The term IC50 denotes the concentration needed to halve the response being measured. Broadly, the EC30 is the concentration needed for an effect of 30%.

The target of data set [1] is Voltage-dependent T-type calcium channel subunit alpha-1G (Homo sapiens, UniProt O43497). Briefly: Inhibition of human Cav3.1 alpha1G expressed in HEK293 cells assessed as inhibition of calcium influx by FLIPR assay. The format is cell-based.
Chain of Voltage-dependent T-type calcium channel subunit alpha-1G (O43497 whole entry): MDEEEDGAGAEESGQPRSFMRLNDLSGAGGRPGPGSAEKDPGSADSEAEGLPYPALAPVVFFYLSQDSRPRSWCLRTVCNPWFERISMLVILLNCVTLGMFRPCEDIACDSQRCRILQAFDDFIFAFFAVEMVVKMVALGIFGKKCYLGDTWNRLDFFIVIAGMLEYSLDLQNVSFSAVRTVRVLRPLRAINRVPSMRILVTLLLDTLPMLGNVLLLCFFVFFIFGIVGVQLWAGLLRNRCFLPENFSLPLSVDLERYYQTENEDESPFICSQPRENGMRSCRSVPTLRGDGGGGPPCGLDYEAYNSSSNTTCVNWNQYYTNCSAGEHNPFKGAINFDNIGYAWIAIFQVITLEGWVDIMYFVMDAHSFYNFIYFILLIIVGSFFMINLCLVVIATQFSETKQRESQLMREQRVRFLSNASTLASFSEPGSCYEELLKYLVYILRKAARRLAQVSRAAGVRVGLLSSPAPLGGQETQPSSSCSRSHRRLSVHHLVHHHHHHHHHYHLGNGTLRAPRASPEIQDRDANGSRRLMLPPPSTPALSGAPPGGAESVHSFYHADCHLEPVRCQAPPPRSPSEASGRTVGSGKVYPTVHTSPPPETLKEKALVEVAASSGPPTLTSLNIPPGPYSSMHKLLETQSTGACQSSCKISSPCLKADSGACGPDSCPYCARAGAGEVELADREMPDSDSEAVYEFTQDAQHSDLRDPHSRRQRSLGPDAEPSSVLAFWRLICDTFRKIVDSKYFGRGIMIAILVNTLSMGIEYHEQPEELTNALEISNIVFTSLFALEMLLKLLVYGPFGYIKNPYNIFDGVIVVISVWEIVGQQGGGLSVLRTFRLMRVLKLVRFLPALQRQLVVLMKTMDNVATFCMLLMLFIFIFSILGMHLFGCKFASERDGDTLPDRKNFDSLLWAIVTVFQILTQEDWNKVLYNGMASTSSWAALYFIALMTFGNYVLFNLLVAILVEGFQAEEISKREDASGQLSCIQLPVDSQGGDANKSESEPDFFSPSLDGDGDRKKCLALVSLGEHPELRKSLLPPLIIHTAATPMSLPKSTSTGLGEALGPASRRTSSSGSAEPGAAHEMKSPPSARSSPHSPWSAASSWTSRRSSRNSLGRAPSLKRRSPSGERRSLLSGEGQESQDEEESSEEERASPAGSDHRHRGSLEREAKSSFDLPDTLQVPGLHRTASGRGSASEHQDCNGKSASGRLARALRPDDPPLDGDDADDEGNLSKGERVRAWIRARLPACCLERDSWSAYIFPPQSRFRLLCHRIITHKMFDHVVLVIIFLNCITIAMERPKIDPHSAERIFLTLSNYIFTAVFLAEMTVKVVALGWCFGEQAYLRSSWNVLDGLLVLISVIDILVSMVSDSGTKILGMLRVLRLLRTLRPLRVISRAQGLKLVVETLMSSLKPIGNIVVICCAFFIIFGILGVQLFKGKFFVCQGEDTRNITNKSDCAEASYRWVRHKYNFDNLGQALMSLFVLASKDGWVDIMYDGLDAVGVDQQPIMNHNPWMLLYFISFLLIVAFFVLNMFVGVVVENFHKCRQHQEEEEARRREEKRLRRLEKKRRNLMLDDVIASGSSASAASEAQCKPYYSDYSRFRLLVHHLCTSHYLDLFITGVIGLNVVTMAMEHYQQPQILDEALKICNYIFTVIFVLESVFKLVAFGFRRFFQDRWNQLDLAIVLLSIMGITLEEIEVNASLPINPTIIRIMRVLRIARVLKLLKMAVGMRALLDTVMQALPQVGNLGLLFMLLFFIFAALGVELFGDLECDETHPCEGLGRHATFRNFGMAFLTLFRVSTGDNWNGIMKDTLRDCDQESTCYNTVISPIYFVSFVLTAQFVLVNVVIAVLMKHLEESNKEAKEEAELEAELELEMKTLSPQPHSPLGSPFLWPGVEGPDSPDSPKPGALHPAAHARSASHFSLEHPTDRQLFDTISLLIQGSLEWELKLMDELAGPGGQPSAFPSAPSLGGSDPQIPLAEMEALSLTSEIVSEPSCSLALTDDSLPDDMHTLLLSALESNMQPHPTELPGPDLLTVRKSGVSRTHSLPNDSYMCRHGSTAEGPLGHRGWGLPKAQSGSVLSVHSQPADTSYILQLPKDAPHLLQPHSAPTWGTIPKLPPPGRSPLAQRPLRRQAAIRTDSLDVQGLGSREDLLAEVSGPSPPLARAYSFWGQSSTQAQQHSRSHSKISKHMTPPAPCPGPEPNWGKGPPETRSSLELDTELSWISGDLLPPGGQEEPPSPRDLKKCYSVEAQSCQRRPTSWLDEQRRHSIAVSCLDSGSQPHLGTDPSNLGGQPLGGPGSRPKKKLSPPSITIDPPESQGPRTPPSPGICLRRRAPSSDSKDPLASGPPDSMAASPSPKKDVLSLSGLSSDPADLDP
The nature of data set [2]: Bradycardic activity in Hartley guinea pig right atrial muscles assessed as reduction of initial spontaneous beat rate after 30 mins. The format is functional. The conditions noted are these: Cavia porcellus, Muscle tissue, 0.5 h.
For data set [3], the system named is Rattus norvegicus. As to the kind of experiment: Antihypertensive activity in spontaneously hypertensive rat assessed as reduction of mean blood pressure at 30 mg/kg, po. The format is functional. Also noted: scale not given: the % may be the effect or the level left.
For data set [4], the system named is Rattus norvegicus. Briefly: Antihypertensive activity in spontaneously hypertensive rat assessed as reduction of mean blood pressure at 30 mg/kg, po after 8 hrs. The format is functional, organism-based. Also noted: dose 30 mg/kg.
Data set [5] relates to Rattus norvegicus. As to the kind of experiment: Toxicity in spontaneously hypertensive rat assessed as effect on reflex tachycardia at 30 mg/kg, po after 8 hrs. Particulars: in vivo. Also noted: dose 30 mg/kg, route oral. The format is organism-based.

As to `CCC(CC)(CNC(=O)C1CCN(Cc2ccc(F)cc2)CC1)c1ccc(F)cc1`, the IC50 in data set [1] was found to be 82 nM.
Turning to `CCC(CC)(CNC(=O)C1CCN(Cc2ccccc2F)CC1)c1ccc(F)cc1`, the IC50 in data set [1] was 36 nM. In addition, in data set [2], the EC30 was 4.2 µM.
On to `O=C(NCC1(c2ccc(F)cc2)CCOCC1)C1CCN(Cc2ccccc2)CC1`, for which, in data set [1], the concentration for half-maximal inhibition (IC50) turned out to be 2200 nM.
The same measure, in the same setting: for `CCC(CC)(CNC(=O)C1CCN(CCc2ccc(OC)cc2)CC1)c1ccc(F)cc1` the value was 770 nM; for `CCCC(CCC)(CNC(=O)C1CCN(Cc2ccccc2)CC1)c1ccc(F)cc1`, 370 nM.
On the same count and under the same terms, for `CCC(CC)(CNC(=O)C1CCN(Cc2ccccc2OC)CC1)c1ccc(F)cc1` the value was 120 nM.
Still for that read-out and setting: for `CCC(CC)(CNC(=O)C1CCN(CCc2ccccc2F)CC1)c1ccc(F)cc1` the value was 90 nM.
Take `CCC(CC)(CNC(=O)C1CCN(CCOc2ccccc2)CC1)c1ccc(F)cc1`: in data set [1], the IC50 amounted to 260 nM.
For the compound `O=C(NCC1(c2ccc(F)cc2)CCCCC1)C1CCCCN1Cc1ccccc1` (configuration not stated), in data set [1], the IC50 was found to be 3000 nM.
Regarding `O=C(NCC1(c2ccc(F)cc2)CCCCC1)C1CCN(Cc2ccccc2)CC1`, the IC50 in data set [1] is 510 nM.
Consider `O=C(NCC1(c2ccc(F)cc2)CCCCC1)C1CCCN(Cc2ccccc2)C1` (configuration not stated), for which the IC50 in data set [1] was 1200 nM.
For the compound `O=C(NCC1(c2ccc(F)cc2)CCC1)C1CCN(Cc2ccccc2)CC1`, the IC50 in data set [1] was 390 nM.
Still for that read-out and setting: for `CCC(CC)(CNC(=O)C1CCN(CCCc2ccccc2)CC1)c1ccc(F)cc1` the value was 240 nM; for `O=C(CC1(c2ccc(F)cc2)CCCCC1)NC1CCN(Cc2ccccc2)CC1`, 860 nM; for `CCC(CC)(CNC(=O)C1CCN(Cc2ccc(OC)cc2)CC1)c1ccc(F)cc1`, 200 nM.
As to `COc1ccc(CN2CCC(C(=O)NCC3(c4ccc(F)cc4)CCCCC3)CC2)cc1OC`, the IC50 in data set [1] came out at 320 nM. Besides, in data set [2], the EC30 was determined as 2.1 µM.
Consider `CCC(CC)(CNC(=O)C1CCN(Cc2cccc(F)c2)CC1)c1ccc(F)cc1`, for which the IC50 in data set [1] turned out to be 130 nM.
Take `CCC(CC)(CNC(=O)C1CCN(CCc2ccc(F)cc2)CC1)c1ccc(F)cc1`: in data set [1], the IC50 was determined as 180 nM.
On the same count and under the same terms, the same measure for `O=C(CCC1(c2ccc(F)cc2)CCCCC1)C1CCN(Cc2ccccc2)CC1`: 2000 nM; for `CCC(CC)(CNC(=O)C1CCN(CCc2cccc(OC)c2)CC1)c1ccc(F)cc1`: 140 nM; for `CCC(CC)(CNC(=O)C1CCN(CCc2ccccc2OC)CC1)c1ccc(F)cc1`: 170 nM.
Same read-out and setting: for `CCC(CC)(CNC(=O)C1CCN(Cc2cccc(OC)c2)CC1)c1ccc(F)cc1` the value was 94 nM; for `CCC(CC)(CNC(=O)C1CCN(Cc2ccccc2)CC1)c1ccc(F)cc1`, 85 nM; for `CCC(CC)(CNC(=O)C1CCN(CCc2cccc(F)c2)CC1)c1ccc(F)cc1`, 130 nM.
With `COCC(=O)O[C@]1(CCN(C)CCCc2nc3ccccc3[nH]2)CCc2cc(F)ccc2[C@@H]1C(C)C` [MIBEFRADIL], the EC30 in data set [2] amounted to 2.9 µM.
`CCC(CC)(CNC(=O)C1CCN(CCc2ccccc2)CC1)c1ccc(F)cc1`: the IC50 in data set [1] amounted to 89 nM. Further, in data set [2], the EC30 stood at 2.5 µM. Moreover, the Activity in data set [3] was 22%; in data set [5] it was “Non-toxic”. Besides, in data set [4], the result was Active.
Turning to `CCC(CC)(CNC(=O)C1CCN(CCCCc2ccccc2)CC1)c1ccc(F)cc1`, in data set [1], the IC50 stood at 250 nM.
Still for that read-out and setting: for `CN(CC1(c2ccc(F)cc2)CCCCC1)C(=O)C1CCN(Cc2ccccc2)CC1` the value was 750 nM; for `Fc1ccc(C2(CNCC3CCN(Cc4ccccc4)CC3)CCCCC2)cc1`, 1200 nM.
As to `CC(C)(CNC(=O)C1CCN(Cc2ccccc2)CC1)c1ccc(F)cc1`, the IC50 in data set [1] was found to be 130 nM.
Regarding `O=C(NCC1(c2ccc(F)cc2)CCCC1)C1CCN(Cc2ccccc2)CC1`, the IC50 in data set [1] came to 220 nM.
